ChEMBL document CHEMBL1155905, “Carbonic anhydrase inhibitors. Interaction of the antitumor sulfamate EMD 486019 with twelve mammalian carbonic anhydrase isoforms: Kinetic and X-ray crystallographic studies” (Bioorg Med Chem Lett, 2008)

Columns and labels:
[1] = biological target: Carbonic anhydrase 5A, mitochondrial (Homo sapiens, UniProt P35218)
Carbonic anhydrase 7 = Carbonic anhydrase 7 (Homo sapiens, UniProt P43166); assay: Inhibition of human cloned CA7 by stopped-flow CO2 hydration method
Carbonic anhydrase 1 = Carbonic anhydrase 1 (Homo sapiens, UniProt P00915)
Description: Inhibition of human cloned CA1 by stopped-flow CO2 hydration method

[2] = biological target: Carbonic anhydrase 5B, mitochondrial (Homo sapiens, UniProt Q9Y2D0)
Carbonic anhydrase 12 = Carbonic anhydrase 12 (Homo sapiens, UniProt O43570)
Description: Inhibition of human cloned CA12 catalytic domain by stopped-flow CO2 hydration method

Carbonic anhydrase 14 = Carbonic anhydrase 14 (Homo sapiens, UniProt Q9ULX7)
Carbonic anhydrase 6 = Carbonic anhydrase 6 (Homo sapiens, UniProt P23280)
Description: Inhibition of human cloned CA6 by stopped-flow CO2 hydration method

Carbonic anhydrase 13 = Carbonic anhydrase 13 (Mus musculus, UniProt Q9D6N1)
Description: Inhibition of mouse CA13 by stopped-flow CO2 hydration method

Carbonic anhydrase 3 = Carbonic anhydrase 3 (Homo sapiens, UniProt P07451)
Description: Inhibition of human cloned CA3 by stopped-flow CO2 hydration method

Carbonic anhydrase 4 = Carbonic anhydrase 4 (Homo sapiens, UniProt P22748)
Carbonic anhydrase 9 = Carbonic anhydrase 9 (Homo sapiens, UniProt Q16790)
Description: Inhibition of human cloned CA9 catalytic domain by stopped-flow CO2 hydration method

Chain of Carbonic anhydrase 4 (P22748 whole entry): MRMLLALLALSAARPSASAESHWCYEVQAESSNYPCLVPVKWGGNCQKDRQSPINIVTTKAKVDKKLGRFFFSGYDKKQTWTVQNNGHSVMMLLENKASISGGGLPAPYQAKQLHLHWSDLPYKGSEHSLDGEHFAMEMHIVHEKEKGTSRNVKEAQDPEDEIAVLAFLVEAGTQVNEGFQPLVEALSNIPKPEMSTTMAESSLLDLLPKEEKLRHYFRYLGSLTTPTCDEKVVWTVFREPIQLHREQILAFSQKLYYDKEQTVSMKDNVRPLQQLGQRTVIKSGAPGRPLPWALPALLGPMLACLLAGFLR
Chain of Carbonic anhydrase 5A, mitochondrial (P35218 whole entry): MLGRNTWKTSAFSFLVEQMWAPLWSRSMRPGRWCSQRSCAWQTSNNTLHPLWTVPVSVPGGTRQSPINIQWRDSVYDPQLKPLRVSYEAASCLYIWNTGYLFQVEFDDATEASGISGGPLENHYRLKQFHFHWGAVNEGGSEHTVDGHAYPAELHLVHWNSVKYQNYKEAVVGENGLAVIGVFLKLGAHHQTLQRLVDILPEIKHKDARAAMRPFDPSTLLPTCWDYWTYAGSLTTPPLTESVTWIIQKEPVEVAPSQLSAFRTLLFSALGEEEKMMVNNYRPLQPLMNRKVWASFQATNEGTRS
Chain of Carbonic anhydrase 1 (P00915 whole entry): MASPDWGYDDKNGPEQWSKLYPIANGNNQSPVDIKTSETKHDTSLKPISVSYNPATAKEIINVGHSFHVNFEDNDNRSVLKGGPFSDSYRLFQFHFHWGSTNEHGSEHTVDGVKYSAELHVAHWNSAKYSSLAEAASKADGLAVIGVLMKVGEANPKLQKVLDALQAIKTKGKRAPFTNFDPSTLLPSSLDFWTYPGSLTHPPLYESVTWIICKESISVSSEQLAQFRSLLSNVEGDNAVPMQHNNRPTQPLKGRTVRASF
Chain of Carbonic anhydrase 6 (P23280 whole entry): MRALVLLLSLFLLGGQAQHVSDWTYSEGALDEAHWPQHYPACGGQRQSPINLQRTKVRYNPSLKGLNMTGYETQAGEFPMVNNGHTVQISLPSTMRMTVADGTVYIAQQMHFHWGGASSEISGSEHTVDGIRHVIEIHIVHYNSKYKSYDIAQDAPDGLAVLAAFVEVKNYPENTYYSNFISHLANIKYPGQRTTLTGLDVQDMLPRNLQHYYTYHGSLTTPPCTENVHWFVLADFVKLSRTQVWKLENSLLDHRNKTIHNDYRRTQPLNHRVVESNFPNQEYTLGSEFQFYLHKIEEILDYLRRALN
Chain of Carbonic anhydrase 14 (Q9ULX7 whole entry): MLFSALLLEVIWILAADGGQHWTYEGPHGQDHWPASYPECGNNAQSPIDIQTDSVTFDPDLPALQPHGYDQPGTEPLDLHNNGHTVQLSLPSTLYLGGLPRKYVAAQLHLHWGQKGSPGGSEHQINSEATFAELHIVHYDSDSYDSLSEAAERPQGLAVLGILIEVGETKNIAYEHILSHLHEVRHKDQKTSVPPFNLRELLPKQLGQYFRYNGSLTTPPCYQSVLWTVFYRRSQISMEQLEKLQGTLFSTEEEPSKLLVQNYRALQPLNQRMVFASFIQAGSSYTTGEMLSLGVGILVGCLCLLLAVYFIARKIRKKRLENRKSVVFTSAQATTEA
Chain of Carbonic anhydrase 5B, mitochondrial (Q9Y2D0 whole entry): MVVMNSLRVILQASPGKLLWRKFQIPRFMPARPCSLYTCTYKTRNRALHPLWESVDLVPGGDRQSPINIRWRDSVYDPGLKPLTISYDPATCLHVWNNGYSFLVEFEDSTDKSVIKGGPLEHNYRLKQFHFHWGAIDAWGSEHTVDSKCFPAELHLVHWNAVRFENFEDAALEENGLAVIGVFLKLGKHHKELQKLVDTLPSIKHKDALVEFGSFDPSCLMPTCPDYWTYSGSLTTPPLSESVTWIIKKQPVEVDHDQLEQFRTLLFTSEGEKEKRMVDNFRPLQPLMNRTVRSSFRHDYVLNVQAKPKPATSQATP
Chain of Carbonic anhydrase 12 (O43570 whole entry): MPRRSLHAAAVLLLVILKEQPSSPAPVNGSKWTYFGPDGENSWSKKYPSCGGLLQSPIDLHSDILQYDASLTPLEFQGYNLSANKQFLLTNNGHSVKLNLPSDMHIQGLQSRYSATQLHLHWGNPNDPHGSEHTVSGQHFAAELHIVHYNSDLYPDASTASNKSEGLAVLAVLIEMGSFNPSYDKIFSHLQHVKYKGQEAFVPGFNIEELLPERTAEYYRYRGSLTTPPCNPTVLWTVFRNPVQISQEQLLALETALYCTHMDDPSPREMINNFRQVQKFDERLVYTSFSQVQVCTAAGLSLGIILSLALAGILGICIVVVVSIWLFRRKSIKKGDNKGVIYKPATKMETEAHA
Chain of Carbonic anhydrase 13 (Q9D6N1 whole entry): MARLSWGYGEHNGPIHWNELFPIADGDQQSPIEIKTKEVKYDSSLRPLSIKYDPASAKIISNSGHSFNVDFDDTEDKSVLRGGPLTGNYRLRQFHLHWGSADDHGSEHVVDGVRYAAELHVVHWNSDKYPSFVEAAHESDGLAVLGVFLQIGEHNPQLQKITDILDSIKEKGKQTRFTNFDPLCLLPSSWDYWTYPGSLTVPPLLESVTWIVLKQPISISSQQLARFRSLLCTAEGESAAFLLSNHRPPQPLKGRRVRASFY
Chain of Carbonic anhydrase 3 (P07451 whole entry): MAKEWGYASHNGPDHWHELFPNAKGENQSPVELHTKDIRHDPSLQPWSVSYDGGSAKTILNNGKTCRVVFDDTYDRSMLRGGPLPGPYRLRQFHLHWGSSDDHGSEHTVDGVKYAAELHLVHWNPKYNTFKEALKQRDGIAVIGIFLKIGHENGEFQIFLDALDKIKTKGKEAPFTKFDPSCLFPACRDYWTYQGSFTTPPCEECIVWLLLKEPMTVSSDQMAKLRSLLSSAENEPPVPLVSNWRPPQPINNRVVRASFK
Chain of Carbonic anhydrase 7 (P43166 whole entry): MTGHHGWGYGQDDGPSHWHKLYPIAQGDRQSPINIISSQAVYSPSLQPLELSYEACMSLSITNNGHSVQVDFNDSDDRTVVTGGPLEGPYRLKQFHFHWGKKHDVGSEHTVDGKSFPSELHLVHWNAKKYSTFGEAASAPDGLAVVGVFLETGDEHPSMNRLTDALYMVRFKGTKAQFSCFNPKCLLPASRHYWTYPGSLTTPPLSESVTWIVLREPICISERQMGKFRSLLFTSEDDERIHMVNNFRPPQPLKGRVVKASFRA

NS(=O)(=O)Oc1ccc2c3c(c(=O)oc2c1)CCCCC3 [IROSUSTAT]
Ki [1]: 765 nM | Ki (Carbonic anhydrase 7): 23 nM | Ki (Carbonic anhydrase 1): 3450 nM | Ki [2]: 720 nM | Ki (Carbonic anhydrase 12): 12 nM | Ki (Carbonic anhydrase 14): 755 nM | Ki (Carbonic anhydrase 6): 653 nM | Ki (Carbonic anhydrase 13): 1050 nM | Ki (Carbonic anhydrase 3): 700000 nM | Ki (Carbonic anhydrase 4): 24 nM | Ki (Carbonic anhydrase 9): 34 nM

NS(=O)(=O)Oc1ccc2c(c1)S(=O)(=O)C(CC1CCCCCC1)=C2
Ki [1]: 682 nM | Ki (Carbonic anhydrase 1): 3600 nM | Ki [2]: 18 nM | Ki (Carbonic anhydrase 12): 13 nM | Ki (Carbonic anhydrase 14): 13 nM | Ki (Carbonic anhydrase 6): 654 nM | Ki (Carbonic anhydrase 13): 66 nM | Ki (Carbonic anhydrase 3): 740000 nM | Ki (Carbonic anhydrase 4): 842 nM | Ki (Carbonic anhydrase 9): 18 nM
